Like-named read-outs stand apart in the source and are kept apart here.
Assays:
[1] = system: Mouse bone marrow derived macrophages (BMDM); assay: Mouse macrophage differentiation assay (CSF-induced); assay type: cell-based
Protocol: Mouse bone marrow derived macrophages (BMDM) were isolated as previously described[53] from C57BL/6 female mice. The isolated cells were washed using standard growth medium (RPMI (Gibco cat# 11875–093) with 2 mM L-glutamine (Gibco cat# 25033), 1% Pen/Strep (Gibco cat# 15140), 10% heat inactivated fetal bovine serum (HI-FBS, Gibco cat# 10438), and 0.1% beta-mercaptoethanol (BME, Gibco cat# 21985–023)), and filtered through a […] cell strainer (Falcon cat# 352360). Cells were counted, re-suspended in growth medium, and plated at 1x10^5 viable cells per well in a 96 well plate (Corning cat# 3603). Inhibitors were added at various concentrations to the cells, and incubated at 37°C/5% CO2 for 30 minutes. Recombinant mouse macrophage colony stimulating factor (M-CSF, R&D cat# 416-ML-010) was added to the plates at a final concentration of […]. Plates were transferred to a 37°C/5% CO2 incubator for 5 days. On the fifth day, supernatant was removed from each well and Cell Titer Glo (Promega cat#G7571) was added. Plates were covered from the light and incubated at room temperature for 10 minutes before reading the luminescence on an EnVision plate reader (PerkinElmer).

CSF1R = CSF1R (Homo sapiens, UniProt P07333); assay: CSF1R enzyme activity (TR-FRET binding displacement, kinase panel)
CSF1R, sequence (P07333 20-972): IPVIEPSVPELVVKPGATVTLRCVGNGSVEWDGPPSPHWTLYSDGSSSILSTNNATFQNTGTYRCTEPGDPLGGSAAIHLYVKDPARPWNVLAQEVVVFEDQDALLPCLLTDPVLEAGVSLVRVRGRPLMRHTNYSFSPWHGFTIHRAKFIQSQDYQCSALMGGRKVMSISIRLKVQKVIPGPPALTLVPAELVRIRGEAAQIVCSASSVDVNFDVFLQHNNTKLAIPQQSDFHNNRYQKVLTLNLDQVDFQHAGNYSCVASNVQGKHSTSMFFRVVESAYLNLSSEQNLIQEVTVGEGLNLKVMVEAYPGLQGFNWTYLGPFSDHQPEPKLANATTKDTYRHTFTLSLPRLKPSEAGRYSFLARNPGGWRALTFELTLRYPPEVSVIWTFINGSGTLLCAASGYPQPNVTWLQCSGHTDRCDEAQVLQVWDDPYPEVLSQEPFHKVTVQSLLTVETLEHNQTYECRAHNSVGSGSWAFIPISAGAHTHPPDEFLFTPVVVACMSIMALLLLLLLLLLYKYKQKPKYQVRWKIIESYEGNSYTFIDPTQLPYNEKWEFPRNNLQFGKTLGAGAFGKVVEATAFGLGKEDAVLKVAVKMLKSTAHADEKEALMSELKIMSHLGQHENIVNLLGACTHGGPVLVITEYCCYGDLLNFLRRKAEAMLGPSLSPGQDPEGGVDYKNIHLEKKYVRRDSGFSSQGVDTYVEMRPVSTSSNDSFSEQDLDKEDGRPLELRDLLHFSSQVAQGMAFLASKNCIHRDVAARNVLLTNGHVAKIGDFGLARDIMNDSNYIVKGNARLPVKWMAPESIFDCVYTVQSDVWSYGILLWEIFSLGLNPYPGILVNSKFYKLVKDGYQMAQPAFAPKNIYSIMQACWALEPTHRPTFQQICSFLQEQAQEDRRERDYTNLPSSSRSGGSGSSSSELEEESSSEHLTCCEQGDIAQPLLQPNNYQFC
Protocol: TR-FRET-based binding displacement studies using active site probes were used to assess kinome selectivity of inhibitor molecules.[54] The concentrations of components for each purified kinase were based on optimized conditions with ranges as follows: kinases (1.25–12.5 nM), Oregon Green-labeled fluorescent probes (2x KD of probe to the particular kinase; range of 1–200 nM; in-house), terbium anti-His or anti-GST antibody (0.5–2 nM). The reaction buffer was diluted to 1x using ddH2O and contained 1 mM DTT.
Compounds were typically tested from 0.0001 to 10 μM in 10x dilutions. Reactions were carried out in a 20 μL volume in 384-well plates by combining kinase, probe, antibody, and test compound and allowing the reaction to come to equilibrium (incubation of 2 h). TR-FRET was then measured on a PerkinElmer Envision plate reader (excitation at 340 nm; emission at 520 and 495 nm). Competition by the test compound versus the fluorescent probe for the ATP binding site of the kinase was quantified by calculating the IC50 value based on a four-parameter logistic curve fit.

[2] = Pharmacokinetic studies of active parent in mice; assay type: in vivo; settings: mouse; for clearance: male, CD1, blood, read-out: Blood Clearance (total clearance) (converted); for clearance / Blood Clearance (unbound clearance, CLb/fub): 1 mg/kg IV, N = 2–3; for FaFg: 1 mg/kg, F/Fh (compound 6) or AUCoral/AUCip
Protocol: Male CD1 mice on Teklad Global Diet 2014 (Envigo Teklad, Madison, WI) (n = 2–3 per study) received a single IV, oral or intraperitoneal (IP) administration of compounds 1, 4, 5 or 6 at 1 mg/kg in 2:5:20:73 (v/v) DMSO:Tween 80:PEG-400:D5W dosed at 10 ml/kg. Serial blood samples were taken over 24h and frozen at −20°C until analysis. Pharmacokinetic parameters after IP or PO dosing were calculated by noncompartmental methods, while pharmacokinetic parameters after IV dosing were calculated by compartmental methods using WinNonlin (version 5.2, Certara USA Inc., St. Louis, MO). Mean parameters were determined from 1–3 separate studies. FaFg was determined as F/Fh (compound 6) or as the ratio of AUC after an oral dose to that after an IP dose (AUCoral/AUCip).

PAMPA permeability = assay type: in vitro ADME
[3] = Per rectal versus oral dosing of active parent: colon, liver, plasma exposure; assay type: in vivo; settings: mouse
Protocol: Prior to dosing, mice were anaesthetized with Isoflurane and fecal material was removed from colons by irrigating with 0.5 mL of PBS using a syringe fitted with a 22 gauge flexible gavage needle. After a 20 min wake up period, mice were again anesthetized and drug was administered in a volume of 0.1–0.2 mL using a syringe fitted with a 22 gauge flexible gavage needle. Mice were then placed in the anesthesia chamber for 40 min in a supine position with hind end elevated to ensure drug remained in colon. After 40 min, mice were removed from the chamber and blood sampling over time (via tail nick) began.
(§1) Active Parent–Male CD1 mice (N = 3) received a single oral administration of compound 1 at 30 mg/kg prepared as a nanosuspension in 2% HPC-SL, 0.2% SDS in water and dosed at 10 ml/kg. Active Parent Prodrugs–Male CD1 mice or female C57BL/6 mice (N = 3) received a single oral adminstration of prodrug at 30 mg/kg active parent equivalent in either 10% Cremophor EL + 90% 1% Na-carboxymethylcellulose (NaCMC) at 10 ml/kg or as a nanosuspension in 2% HPC-SL, 0.2% SDS in water at 10 ml/kg.Blood samples were taken over 11 hours, and colon samples were taken at 3, 6 and/or 11 hours post dose. Mice received either Teklad Global Diet 2014 (Envigo Teklad, Madison, WI or LabDiet #5010 (LabDiet, St. Louis, MO).
(§2) Due to the inherent risk of fecal or PR-dosed material contaminating true levels of colon tissue exposure, careful flushing of colon tissue for drug analysis was required. Upon necropsy, a section of mouse colon was removed, and flushed with PBS until no visible fecal material was observed. Subsequently, a 1–2 cm section of colon was blotted dry, weighed and snap-frozen in liquid nitrogen.
(§3) Colon tissue (~50 mg) was diluted 10x in Veterinary Sterile Water for Irrigation (USP by Abbott), then 1.4 mm zirconium oxide beads were added and tissue was homogenized using an Omni Bead Ruptor 24 (Omni International, Kennesaw, GA). Aliquots of colon homogenate samples and a set of colon standards were pipetted in 96-well plates and subjected to protein precipitation extraction (with acetonitrile + internal standard) on a Microlab Star robot (Hamilton Robotics, Reno, NV). Plates were then mixed on a MixMate (Eppendorf, Hamburg, Germany) for 1 min at 1600 rpm and centrifuging for 5 min at 4000 rpm in 5810 R Centrifuge (Eppendorf, Hamburg, Germany). Supernatant was transferred into new plates and diluted with LC-MS/MS mobile phase.
(§4) Spiked standards were prepared in the appropriate matrices. All unknown samples and spiked standards were combined with acetonitrile containing internal standard, vortexed, and centrifuged to pellet the proteins. Supernatants were used for subsequent analysis by LC-MS/MS. The mobile phase consisted of acetonitrile with 0.1% formic acid, and water with 0.1% formic acid at a flow rate of 0.8 mL/min. Analytes were separated using reverse phase chromatography with a fast gradient on a 30 x 2.1 mm Fortis C18 Pace […] column, prior to analysis on a Sciex API5500™ mass spectrometer. Peak areas were determined using Sciex Analyst™ 1.6 software. Actual concentrations were calculated by regression analysis of the peak area ratio (parent / internal standard) of the spiked standards versus concentration.

[4] = Oral administration of prodrugs to mice: colon, plasma, feces exposure; assay type: in vivo; settings: mouse; for Prodrug levels in plasma after oral dosing / Prodrug plasma concentration, fold lower than active parent 1: dose equal to 30 mg/kg of 1; for Plasma versus colon levels of active parent 1 after oral prodrug: dose equal to 30 mg/kg of 1, 3 and 11 h
Protocol: as §1, §2, §3, §4

[5] = Plasma stability in vitro; assay type: in vitro ADME, mouse
[6] = PK experiment dosing hemi-succinate 15 IV or PO; assay type: in vivo, mouse; settings: IV or PO 1 mg/kg; 0.5 to 12 h
[7] = CSF-induced mouse macrophage differentiation, mean from n ≥3 experiments, read-out: Mouse Mac EC50
[8] = Mus musculus, adjusted for binding in 10% FBS, read-out: Cellular EC50 corrected for binding in 10% FBS

Structure (SMILES)	EC50 [1, 7]	EC50 [1, 8]	IC50 (CSF1R)	clearance [2]	Blood Clearance (unbound clearance, CLb/fub) [2]	FaFg [2]	Papp (PAMPA permeability)	Prodrug levels in plasma after oral dosing [4]	also measured
O[C@H]1CC[C@H](n2cc(Nc3nc(C4CCCCC4)cn4ncnc34)cn2)CC1 [Compound 1, (1r,4r)-4-(4-((6-Cyclohexyl-[1,2,4]triazolo[1,5-a]pyrazin-8-yl)amino)-1H-pyrazol-1-yl)cyclohexanol]	113 nM	0.022 µg/mL	< 10 nM	75 mL/min/kg	2500 mL/min/kg	43%	15.6 ×10⁻⁶ cm/s	–	Kp at 1 h ([3]; colon and plasma, other: per rectal (PR), PR 30 mg/kg, 1 h, read-out: colon:plasma ratio (unbound)): 22; Kp at 3 h ([3]; male, CD1, colon and plasma, PO 30 mg/kg, 3 h, read-out: colon:plasma ratio (unbound)): 0.5; Mean colon unbound Cmax ([3]; PO 30 mg/kg, 3 h): 9 ng/g; colon:liver ratio (unbound) ([3]; PO 30 mg/kg, 3 h): 0.34 x; Mean colon unbound Cmax ([3]; PR 30 mg/kg, 1 h): 67 ng/g; colon:liver ratio (unbound) ([3]; PR 30 mg/kg, 1 h): 7 x; Compound in the colon at the terminal time point ([3]; PR 30 mg/kg, 11 h): Lack of compound detection in the colon; 1 h colon exposure versus cellular EC50 ([3]; PR 30 mg/kg, unbound): exceeded the cellular EC50; 1 h plasma exposure exceeding cellular EC50 ([3]; PR 30 mg/kg, unbound): did not
OCCn1cc(Nc2nc(C3CCCCC3)cn3ncnc23)cn1 [Compound 4, 2-(4-((6-Cyclohexyl-[1,2,4]triazolo[1,5-a]pyrazin-8-yl)amino)-1H-pyrazol-1-yl)ethanol]	245 nM	0.019 µg/mL	< 10 nM	108 mL/min/kg	1700 mL/min/kg	18%	14.1 ×10⁻⁶ cm/s	–	–
CC(C)(O)CCn1cc(Nc2nc(C3CCCCC3)cn3ncnc23)cn1 [Compound 5, 4-(4-((6-Cyclohexyl-[1,2,4]triazolo[1,5-a]pyrazin-8-yl)amino)-1H-pyrazol-1-yl)-2-methylbutan-2-ol]	104 nM	0.021 µg/mL	< 10 nM	80 mL/min/kg	3280 mL/min/kg	32%	8.7 ×10⁻⁶ cm/s	–	–
O=C(O)[C@H]1CC[C@H](n2cc(Nc3nc(C4CCCCC4)cn4ncnc34)cn2)CC1 [Compound 6]	196 nM	0.042 µg/mL	< 10 nM	16.7 mL/min/kg	317 mL/min/kg	35%	14.6 ×10⁻⁶ cm/s	–	–
CN(C)CC(=O)OC1CCC(n2cc(Nc3nc(C4CCCCC4)cn4ncnc34)cn2)CC1 (stereo not drawn) [Compound 7, (1r,4r)-4-(4-((6-Cyclohexyl-[1,2,4]triazolo[1,5-a]pyrazin-8-yl)amino)-1H-pyrazol-1-yl)cyclohexyl 2-(dimethylamino)acetate]	–	–	–	–	–	–	–	no prodrug levels were measurable in plasma	Plasma versus colon levels of active parent 1 after oral prodrug [4]: significantly higher plasma versus colon drug levels; Stability in plasma [5]: not stable in plasma
CC(C)C(N)C(=O)OC1CCC(n2cc(Nc3nc(C4CCCCC4)cn4ncnc34)cn2)CC1 [Compound 8, (R)-(1r,4r)-4-(4-((6-Cyclohexyl-[1,2,4]triazolo[1,5-a]pyrazin-8-yl)amino)-1H-pyrazol-1-yl)cyclohexyl 2-amino-3-methylbutanoate]	–	–	–	–	–	–	–	–	Prodrug plasma concentration, fold lower than active parent 1 [4]: ~ 10 x; Plasma versus colon levels of active parent 1 after oral prodrug [4]: significantly higher plasma versus colon drug levels
OCC1OC(OC2CCC(n3cc(Nc4nc(C5CCCCC5)cn5ncnc45)cn3)CC2)C(O)C(O)C1O [Compound 9, (2R,3R,4S,5S,6R)-2-(((1r,4r)-4-(4-((6-Cyclohexyl-[1,2,4]triazolo[1,5-a]pyrazin-8-yl)amino)-1H-pyrazol-1-yl)cyclohexyl)oxy)-6-(hydroxymethyl)tetrahydro-2H-pyran-3,4,5-triol]	–	–	–	–	–	–	–	–	Prodrug plasma concentration, fold lower than active parent 1 [4]: ~ 100 x
OCC1OC(OC2CCC(n3cc(Nc4nc(C5CCCCC5)cn5ncnc45)cn3)CC2)C(O)C(O)C1O [Compound 10, (2S,3R,4S,5S,6R)-2-(((1r,4s)-4-(4-((6-cyclohexyl-[1,2,4]triazolo[1,5-a]pyrazin-8-yl)amino)-1H-pyrazol-1-yl)cyclohexyl)oxy)-6-(hydroxymethyl)tetrahydro-2H-pyran-3,4,5-triol]	–	–	–	–	–	–	–	no measureable plasma levels	–
O=C(O)C1OC(OC2CCC(n3cc(Nc4nc(C5CCCCC5)cn5ncnc45)cn3)CC2)C(O)C(O)C1O [Compound 11, (2S,3S,4S,5R,6R)-6-(((1r,4r)-4-(4-((6-Cyclohexyl-[1,2,4]triazolo[1,5-a]pyrazin-8-yl)amino)-1H-pyrazol-1-yl)cyclohexyl)oxy)-3,4,5-trihydroxytetrahydro-2H-pyran-2-carboxylic acid]	–	–	–	–	–	–	–	no measureable plasma levels	–
O=C(O)CCC(=O)O[C@H]1CC[C@H](n2cc(Nc3nc(C4CCCCC4)cn4ncnc34)cn2)CC1 [Compound 15, 4-(((1r,4r)-4-(4-((6-Cyclohexyl-[1,2,4]triazolo[1,5-a]pyrazin-8-yl)amino)-1H-pyrazol-1-yl)cyclohexyl)oxy)-4-oxobutanoic acid]	–	–	–	–	–	–	–	–	Plasma levels of 15 [6]: no detectable plasma levels of 15; CSF1R enzyme activity inhibition (CSF1R): able to inhibit CSF1R enzyme activity; Stability in plasma [5]: not stable in mouse plasma in vitro

Reference: article PMC6128612, “Prodrugs for colon-restricted delivery: Design, synthesis, and in vivo evaluation of colony stimulating factor 1 receptor (CSF1R) inhibitors” (PLoS ONE, 2018)
